Experimental data from article PMC2195641 (The Journal of Experimental Medicine, 1999).
Where a SMILES comes first, the peptide text is derived from it.

Biological target: T1, purified I-E^k molecules (Mus musculus, UniProt P04224+P04231)
T1 sequence (P04224 26-255): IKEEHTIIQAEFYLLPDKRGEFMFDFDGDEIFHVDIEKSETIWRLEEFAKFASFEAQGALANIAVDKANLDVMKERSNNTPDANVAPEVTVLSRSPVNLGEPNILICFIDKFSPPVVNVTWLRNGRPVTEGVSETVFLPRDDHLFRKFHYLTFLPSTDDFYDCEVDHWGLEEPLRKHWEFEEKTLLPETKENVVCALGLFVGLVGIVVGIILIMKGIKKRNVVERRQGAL
T1 sequence (P04231 1-232): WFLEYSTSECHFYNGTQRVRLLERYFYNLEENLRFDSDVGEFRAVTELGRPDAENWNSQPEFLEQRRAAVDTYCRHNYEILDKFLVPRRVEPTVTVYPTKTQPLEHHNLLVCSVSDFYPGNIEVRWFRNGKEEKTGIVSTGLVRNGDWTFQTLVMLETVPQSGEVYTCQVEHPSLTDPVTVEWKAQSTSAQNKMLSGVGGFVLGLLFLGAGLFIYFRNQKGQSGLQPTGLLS
Experiment: I-E^k binding assay

In the case of `CC[C@H](C)[C@H](NC(=O)[C@H](C)NC(=O)[C@H](C)NC(=O)[C@H](C)NC(=O)[C@H](C)NC(=O)[C@H](C)NC(=O)[C@H](C)NC(=O)[C@H](C)N)C(=O)N[C@@H](C)C(=O)N[C@@H](Cc1ccc(O)cc1)C(=O)N[C@@H](C)C(=O)N[C@@H](CCCCN)C(=O)N[C@@H](CCC(N)=O)C(=O)N[C@@H](C)C(=O)N[C@H](C(=O)N[C@@H](CCCCN)C(=O)O)[C@@H](C)O` [pMCC-A] (H-AAAAAAAIAYAKQATK-OH), the IC50 is reported as 36 nM.
